One experiment has as its system GIST-T1 cells. In words: Cell viability assay (CellTiter-Glo). It counts as cell-based. Particulars: Homo sapiens, GISTT1; 72 h; concentration causing half-maximal growth inhibition. The method, then: (§1) GIST-T1 (Cosmobio, Tokyo, Japan, # PMC-GIST01C-COS) cells were cultured in DMEM (Welgene, # LM001-05) and HMC1.2 (Merck, Darmstadt, Germany, # SCC062) cells were cultured in IMDM (Welgene, # LM004-01). Parental Ba/F3 (DSMZ, Braunschweig, Germany, # ACC300) cells were cultured in RPMI (Welgene, # LM011-51) with 10 ng IL-3/mL (Enzo, # ALX-201-821). The culture media was supplemented with 10% fetal bovine serum and 1% penicillin/streptomycin solution. The cells were maintained in a humidified atmosphere containing 5% CO2 at 37 °C.
(§2) Cells (GIST-T1: 5.0 × 10^3; HMC1.2: 1 × 10^4) were seeded in 96-well plates. Each compound was treated in each well at 10 dose points of 3-fold serial dilution. After treatment with each compound for 72 h, CellTiter-Glo solution (Promega, # G7572) was added to each well. Anti-proliferation activity was measured the luminescence using a 96-well plate reader (EnVision 2013).

Another experiment relates to HMC1.2 cells. In words: Cell viability assay (CellTiter-Glo). Type of experiment: cell-based, human. The conditions noted are these: 72 h; for GI50: Homo sapiens; for GI50 HMC1.2: inactive = less than 50% inhibition at a concentration of 50 μM. The method, then:
as §1, §2
On the technique in general: ATP-based viability assays read luminescence as a measure of living cells.

Another experiment addresses c-KIT (Homo sapiens, UniProt P10721). In words: Radiometric biochemical kinase assay on c-KIT. Also noted: purchased Reaction Biology Corp. (contract assay service). The conditions noted are these: for IC50: read-out: IC50 against c-KIT; for IC50 against c-KIT: radiometric biochemical kinase assay, 10 μM ATP, inactive = less than 50% inhibition at a concentration of 10 μM; for fold enhanced c-KIT inhibitory activity compared with 6h: versus 6h; for fold decreased c-KIT inhibitory activity relative to 6r: versus 6r. How it is done:
Biochemical kinase assays on c-KIT protein kinase were performed at Reaction Biology Corp. (San Diego, CA, USA). […] The kinase assay followed the manufacturer’s instruction. IC50 values were calculated by GraphPad prism 8.0 software (GraphPad Software, San Diego, CA, USA).
Enzymatic inhibitory activities of all synthesized thiazolo[5,4-b]pyridine derivatives against c-KIT were measured using radiometric biochemical kinase assays (Table 1). We first explored the R1 group of the thiazolo[5,4-b]pyridine scaffold.

The next experiment deals with parental Ba/F3 cells. Nature of the experiment: Anti-proliferative activity on Ba/F3 cells. Type of experiment: cell-based. Particulars: Mus musculus, BaF3. How it is done: as §1, §2
The test system of the next experiment is c-KIT D816V Ba/F3 cells. In words: Anti-proliferative activity on Ba/F3 cells. It counts as cell-based. Particulars: Mus musculus, BaF3.

For orientation: GI50 means the concentration giving 50% growth inhibition. The term IC50 denotes the point on the concentration scale where inhibition reaches its midpoint.

A value given as a limit tells only on which side of the number the result lay.

c-KIT, sequence (P10721 26-976): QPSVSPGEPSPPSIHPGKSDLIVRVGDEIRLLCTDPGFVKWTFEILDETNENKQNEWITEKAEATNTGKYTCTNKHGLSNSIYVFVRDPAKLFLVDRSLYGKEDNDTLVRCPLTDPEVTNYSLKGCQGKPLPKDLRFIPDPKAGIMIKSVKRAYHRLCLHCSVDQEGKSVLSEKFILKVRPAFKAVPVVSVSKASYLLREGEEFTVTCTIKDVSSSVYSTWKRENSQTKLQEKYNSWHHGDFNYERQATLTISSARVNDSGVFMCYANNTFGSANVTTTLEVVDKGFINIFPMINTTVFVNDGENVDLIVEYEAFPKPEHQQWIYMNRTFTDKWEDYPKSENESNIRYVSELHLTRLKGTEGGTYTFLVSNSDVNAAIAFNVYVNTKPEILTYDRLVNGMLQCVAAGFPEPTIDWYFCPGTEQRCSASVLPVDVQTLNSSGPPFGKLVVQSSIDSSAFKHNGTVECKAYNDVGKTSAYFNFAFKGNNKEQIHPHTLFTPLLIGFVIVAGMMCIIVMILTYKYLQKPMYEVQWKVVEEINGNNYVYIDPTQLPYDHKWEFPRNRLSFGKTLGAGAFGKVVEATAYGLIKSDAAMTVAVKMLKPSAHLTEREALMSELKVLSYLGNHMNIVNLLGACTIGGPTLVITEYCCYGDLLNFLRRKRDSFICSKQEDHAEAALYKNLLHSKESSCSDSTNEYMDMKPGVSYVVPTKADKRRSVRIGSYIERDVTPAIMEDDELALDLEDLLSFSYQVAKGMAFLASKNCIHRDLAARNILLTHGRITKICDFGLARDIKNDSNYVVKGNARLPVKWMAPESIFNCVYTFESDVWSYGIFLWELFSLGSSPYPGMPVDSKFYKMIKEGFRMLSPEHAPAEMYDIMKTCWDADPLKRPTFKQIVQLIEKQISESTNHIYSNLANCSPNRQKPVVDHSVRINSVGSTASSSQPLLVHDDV

For `CC(=O)Nc1nc2cc(-c3cc(NC(=O)c4ccc(N5CCOCC5)c(C(F)(F)F)c4)ccc3C)cnc2s1` [7e], the GI50 in the experiment with GIST-T1 cells stood at 0.23 ± 0.07 µM; with HMC1.2 cells it was 14 ± 10.2 µM. For the same compound, at c-KIT, the IC50 came to 0.88 µM.

`Cc1cncc(C(=O)Nc2ccc(C)c(-c3cnc4sc(N)nc4c3)c2)c1` [6f] yielded a GI50 in the experiment with GIST-T1 cells of 20.9 ± 2 µM. Besides, in the experiment with HMC1.2 cells, the “GI50 HMC1.2” value is “inactive ^b”. In addition, the “IC50 against c-KIT” value against c-KIT is “inactive^b”.

Regarding `Cc1ccc(NC(=O)c2ccc(CN3CCCC(N(C)C)C3)c(C(F)(F)F)c2)cc1-c1cnc2sc(N)nc2c1` (stereo not drawn) [6v], the GI50 in the experiment on GIST-T1 cells came to 0.05 ± 0.01 µM; in the experiment on HMC1.2 cells, 6.81 ± 0.67 µM. The IC50 on c-KIT amounted to 0.39 µM.

In the case of `CCN(CC)CCNC(=O)c1c(C)[nH]c(/C=C2\C(=O)Nc3ccc(F)cc32)c1C` [sunitinib, reference compound], the GI50 turned out to be 0.01 µM with GIST-T1 cells, 2.72 ± 0.3 µM with parental Ba/F3 cells, 2.53 ± 0.35 µM in the experiment with HMC1.2 cells and 0.58 ± 0.29 µM in the experiment on c-KIT D816V Ba/F3 cells.

Take `Cc1ccc(NC(=O)c2ccc(CN3CCOCC3)c(C(F)(F)F)c2)cc1-c1cnc2sc(N)nc2c1` [6p]: the GI50 with GIST-T1 cells was 0.66 ± 0.1 µM; in the experiment on HMC1.2 cells, 8.55 ± 2.4 µM. Also, on c-KIT, the IC50 was 5.72 µM.

With `Cc1ccc(NC(=O)c2ccccc2)cc1-c1cnc2sc(N)nc2c1` [6d], the 50% growth inhibitory concentration (GI50) in the experiment on GIST-T1 cells was determined as 16.4 ± 2.73 µM; with HMC1.2 cells, 25.2 ± 2.21 µM. Besides, the “IC50 against c-KIT” value against c-KIT was “inactive^b”.

On to `Cc1ccc(NC(=O)c2cccc(S(C)(=O)=O)c2)cc1-c1cnc2sc(N)nc2c1` [6g], for which the GI50 stood at 10.8 ± 1.06 µM in the experiment on GIST-T1 cells and 36.8 ± 10.9 µM with HMC1.2 cells. In addition, the “IC50 against c-KIT” value against c-KIT was “inactive^b”.

As to `CC(=O)Nc1nc2cc(-c3cc(NC(=O)c4ccc(CN5CCOCC5)c(C(F)(F)F)c4)ccc3C)cnc2s1` [7f], the GI50 came out at 0.3 ± 0.06 µM with GIST-T1 cells and 28.4 ± 13.3 µM in the experiment on HMC1.2 cells. Also, the IC50 on c-KIT stood at 3.63 µM.

In the case of `Cc1cccc(C(=O)Nc2ccc(C)c(-c3cnc4sc(N)nc4c3)c2)c1` [6e], the GI50 in the experiment with GIST-T1 cells came to 3.45 ± 0.41 µM; with HMC1.2 cells, 11.5 ± 0.62 µM. Further, the “IC50 against c-KIT” value against c-KIT is “inactive^b”.

Regarding `CC(=O)Nc1nc2cc(-c3cc(NC(=O)c4ccc(CN(C)CCN(C)C)c(C(F)(F)F)c4)ccc3C)cnc2s1` [7h], the GI50 in the experiment with GIST-T1 cells was 0.02 µM; in the experiment on HMC1.2 cells, 4.98 ± 0.32 µM. Also, the IC50 on c-KIT is 0.1 µM.

With `Cc1ccc(NC(=O)c2ccc(N3CCN(C)CC3)c(C(F)(F)F)c2)cc1-c1cnc2sc(N)nc2c1` [6m], halving of growth in the experiment with GIST-T1 cells (GI50) required 0.27 ± 0.17 µM. This compound came in with a GI50 in the experiment with HMC1.2 cells of 3.41 ± 1.49 µM. Also, on c-KIT, the IC50 worked out at 2.17 µM and the “fold enhanced c-KIT inhibitory activity compared with 6h” value (shortened to “fold enhanced c-KIT inhibitory activity”) is on record as 2.3- to 5.6 fold.

In the case of `Cc1ccc(NC(=O)c2ccc(CN3CCN(C)CC3)c(C(F)(F)F)c2)cc1-c1cnc2sc(NC(=O)C3CCCCC3)nc2c1` [7a], the GI50 in the experiment with GIST-T1 cells stood at 0.08 ± 0.01 µM. The compound also yielded a GI50 with HMC1.2 cells of 4.58 ± 0.32 µM. For the same compound, on c-KIT, the IC50 turned out to be 1.51 µM and the “fold decreased c-KIT inhibitory activity relative to 6r” value is on record as 5.3- to 10.8 fold.

With `Cc1ccc(NC(=O)c2ccc(CN(C)CCN(C)C)c(C(F)(F)F)c2)cc1-c1cnc2sc(N)nc2c1` [6w], the GI50 in the experiment with GIST-T1 cells is 0.02 ± 0.01 µM; in the experiment with HMC1.2 cells, 4.99 ± 0.43 µM. Besides, the IC50 on c-KIT was 0.25 µM.

`Cc1ccc(NC(=O)c2cccc(C(F)(F)F)c2)cc1-c1cnc2sc(N)nc2c1` [6h]: the concentration for 50% growth inhibition (GI50) came to 0.96 ± 0.1 µM with GIST-T1 cells and 7.26 ± 4.13 µM with HMC1.2 cells. The IC50 on c-KIT came to 9.87 µM.

Take `Cc1ccc(NC(=O)c2ccc(CN3CCS(=O)(=O)CC3)c(C(F)(F)F)c2)cc1-c1cnc2sc(N)nc2c1` [6q]: the GI50 in the experiment with GIST-T1 cells stood at 0.42 ± 0.07 µM; in the experiment on HMC1.2 cells it was 15.5 ± 3.97 µM. Further, the IC50 on c-KIT amounted to 3.23 µM.

As for `Cc1ccc(NC(=O)c2ccc(CN3CCN(C)CC3)c(C(F)(F)F)c2)cc1-c1cnc2sc(NC(=O)c3ccccc3)nc2c1` [7b], the GI50 came out at 0.1 ± 0.01 µM with GIST-T1 cells and 5.22 ± 0.59 µM in the experiment on HMC1.2 cells. Moreover, the IC50 on c-KIT was 0.74 µM. For the same compound, the “fold decreased c-KIT inhibitory activity relative to 6r” value on c-KIT is given as 5.3- to 10.8 fold.

As for `Cc1ccc(NC(=O)c2ccc(N3CCOCC3)c(C(F)(F)F)c2)cc1-c1cnc2sc(N)nc2c1` [6l], the GI50 with GIST-T1 cells was determined as 0.08 ± 0.01 µM; with HMC1.2 cells, 4.34 ± 1.31 µM. On c-KIT, the IC50 was 1.76 µM. Moreover, at c-KIT, the “fold enhanced c-KIT inhibitory activity” value is reported as 2.3- to 5.6 fold.

On to `Cc1ccc(NC(=O)c2ccc(CN3CCN(CCO)CC3)c(C(F)(F)F)c2)cc1-c1cnc2sc(N)nc2c1` [6t], for which the GI50 with GIST-T1 cells stood at 0.12 ± 0.03 µM; in the experiment on HMC1.2 cells it was 6.62 ± 0.75 µM. Further, the IC50 at c-KIT was 1.25 µM.

Turning to `Cc1ccc(NC(=O)c2ccc(N(C)C)c(C(F)(F)F)c2)cc1-c1cnc2sc(N)nc2c1` [6k], in the experiment on GIST-T1 cells, the GI50 came to 0.18 ± 0.03 µM. In addition, the GI50 in the experiment on HMC1.2 cells was found to be 2.27 ± 0.84 µM. In addition, at c-KIT, the IC50 stood at 4.31 µM and the “fold enhanced c-KIT inhibitory activity” value is 2.3- to 5.6 fold.

The compound `Cc1ccc(NC(=O)c2csc(-c3ccncc3)n2)cc1-c1cnc2sc(N)nc2c1` [6c] came in with a GI50 in the experiment on GIST-T1 cells of 33.7 ± 3.45 µM. In addition, the “GI50 HMC1.2” value in the experiment with HMC1.2 cells is “Inactive ^b”. Moreover, the “IC50 against c-KIT” value at c-KIT is “inactive^b”.

`CC(=O)Nc1nc2cc(-c3cc(NC(=O)c4ccc(CN5CCCC(N(C)C)C5)c(C(F)(F)F)c4)ccc3C)cnc2s1` (stereo not drawn) [7g]: the results for the GI50 in the experiment on GIST-T1 cells and in the experiment on HMC1.2 cells were 0.07 ± 0.01 µM and 4.88 ± 1.18 µM, respectively. The IC50 at c-KIT worked out at 0.18 µM.

Regarding `Cc1cc(C(=O)Nc2ccc(C)c(-c3cnc4sc(N)nc4c3)c2)no1` [6b], the GI50 in the experiment with GIST-T1 cells amounted to 33 ± 7.09 µM. The “GI50 HMC1.2” value in the experiment on HMC1.2 cells is “Inactive ^b”. On c-KIT, the “IC50 against c-KIT” value was “inactive^b”.

`Cc1ccc(NC(=O)c2ccc(N3CCOCC3)c(C(F)(F)F)c2)cc1-c1cnc2sc(NC(=O)C3CCCCC3)nc2c1` [7d]: the GI50 with GIST-T1 cells was determined as 8.13 ± 1.81 µM. The “GI50 HMC1.2” value with HMC1.2 cells is “inactive ^b”. In addition, the “IC50 against c-KIT” value at c-KIT was “inactive^b”.

Take `Cc1ccc(NC(=O)Nc2cccc(C(F)(F)F)c2)cc1-c1cnc2sc(N)nc2c1` [6j]: the results for the GI50 with GIST-T1 cells and in the experiment on HMC1.2 cells were 3.31 ± 0.73 µM and 6.35 ± 0.32 µM, respectively. Moreover, the “IC50 against c-KIT” value on c-KIT is “inactive^b”.

Turning to `Cc1ccc(NC(=O)c2cc(N3CCN(C)CC3)cc(C(F)(F)F)c2)cc1-c1cnc2sc(N)nc2c1` [6o], the GI50 was determined as 0.28 ± 0.08 µM in the experiment with GIST-T1 cells and 2.36 ± 0.58 µM in the experiment on HMC1.2 cells. Besides, the IC50 at c-KIT was found to be 5.03 µM.

As for `Cc1ccc(NC(=O)c2cscn2)cc1-c1cnc2sc(N)nc2c1` [6a], the GI50 in the experiment with GIST-T1 cells was more than 50 µM. Besides, the “GI50 HMC1.2” value in the experiment with HMC1.2 cells was “Inactive ^b”. At c-KIT, the “IC50 against c-KIT” value is “inactive^b”.

Consider `Cc1ccc(NC(=O)Cc2cccc(C(F)(F)F)c2)cc1-c1cnc2sc(N)nc2c1` [6i], for which the results for the GI50 in the experiment with GIST-T1 cells and in the experiment with HMC1.2 cells were 7.16 ± 0.87 µM and 9.65 ± 1.06 µM, respectively. Also, at c-KIT, the “IC50 against c-KIT” value is “inactive^b”.

`Cc1ccc(NC(=O)c2cc(N3CCOCC3)cc(C(F)(F)F)c2)cc1-c1cnc2sc(N)nc2c1` [6n]: the GI50 with GIST-T1 cells worked out at 0.55 ± 0.09 µM; in the experiment on HMC1.2 cells, 7 ± 2.68 µM. Moreover, the “IC50 against c-KIT” value against c-KIT was “Inactive ^b”.

On to `CC(=O)N1CCN(Cc2ccc(C(=O)Nc3ccc(C)c(-c4cnc5sc(N)nc5c4)c3)cc2C(F)(F)F)CC1` [6u], for which the concentration for 50% growth inhibition (GI50) was determined as 0.66 ± 0.08 µM with GIST-T1 cells and 11.3 ± 0.34 µM in the experiment on HMC1.2 cells. Also, the IC50 at c-KIT amounted to 4.56 µM.
